From a melting point compilation (Tetko et al.; mined from patent text by program, amines drawn as free bases though some values may be those of a salt)

SMILES	melting point [°C]
CCOC(=O)COc1cc2cc(C3CCCC3)sc2c(Cl)c1Cl	65 to 67
CC(C)C(NC(=O)CCc1ccccn1)C(=O)NC(Cc1ccccc1)C(O)C(Cc1ccccc1)NC(=O)C(NC(=O)CCc1ccccn1)C(C)C (stereo not drawn)	216 to 218
CCn1cc(C(=O)OCC(=O)OCC2CCCCC2)c(=O)c2ccc(C)nc21	130 to 132
CC(C)(C)C(=O)OCC(COC(=O)C(C)(C)C)OCn1cnc2c(=O)[nH]c(N)nc21	230 to 232
CC(=O)c1ccc(Nc2cc(C)nc(N)n2)cc1	194 to 196
ClCc1ccnc(OCc2cn3c(Cl)cccc3n2)c1	118 to 119
O=C(O)c1ccc(C(=O)O)c(-c2nc3ccccc3[nH]2)c1	312 to 314
CCCc1c(C(=O)C(C)C)c2ccc(C(=O)NO)cc2n1Cc1ccccc1Cl	185 to 186
C[C@H](NC(=O)C1(C)Oc2ccc([N+](=O)[O-])cc2NC1=O)C(=O)N[C@H](CCC(=O)O)C(N)=O (stereo partly drawn)	142 to 146
CCN1CCCC1CNC(=O)c1cc([N+](=O)[O-])c(Cl)cc1OC (stereo not drawn)	107 to 108
CSc1cncnc1-c1ssc(=S)c1C	89 to 90
CCN(CC)C(=O)c1cccc(I)c1C(=O)O	120 to 122
CCc1ccc(S(=O)(=O)Nc2ccc(Cl)cc2[N+](=O)[O-])cc1	104 to 106
CCc1nc2c(C)cc(C)nc2n1Cc1ccc(NCC2CCNCC2)cc1	165 to 168
Cc1oc(-c2ccc(F)cc2)nc1COc1cccc(Cn2oc(=O)[nH]c2=O)c1	163 to 164
COc1ccc(C(=O)[C@H]2CC=CC[C@H]2C(=O)O)c2c1OC(C)(C)C2 (relative stereo)	154 to 156
Cc1nc(C)c(Cc2cccs2)c(NCc2ccc(-c3ccccc3-c3nnn[nH]3)cc2)n1	262 to 263
Cn1c(=O)oc2cc3c(cc21)C1(CO3)C(=O)N(CC2CCCO2)c2ccccc21 (stereo not drawn)	> 250
CCCN(CCC)C1=NC2C(Br)=NN(C)C2C(O)=N1 (stereo not drawn)	186 to 187
COCOCc1ccccc1C1Cn2cc(C(=O)NCc3ccc(Cl)cc3)c(=O)c3cc(CN4CCOCC4)cc(c32)O1 (stereo not drawn)	202 to 204
COc1cc(OC)cc(N2CCN(C(=O)N(C)c3cc4ccccc4nc3OC)CC2)c1	88 to 89
Oc1ccc(Cc2nc(-c3cccs3)c[nH]2)cc1	189 to 191
Nc1ncc(CCO)s1	125 to 127
ClCc1ccc(-c2ccc(CCl)cc2)cc1	137 to 138
C#CCn1c(=O)oc2cc(Cl)c(-c3ccc(C(F)(F)F)n(C)c3=O)cc21	187 to 189

SMILES	melting point [°C]
Cc1oc(-c2ccccc2)nc1/C=C/c1ccc(C=O)cc1	158 to 159
CCOC(=O)C1=C(C)NC(CC)=C(C(=O)OCC)C1c1cc([N+](=O)[O-])ccc1OCCCCCl (stereo not drawn)	147 to 149
CCOC(=O)C=CC(=O)c1ccc(Oc2ccccc2)cc1	50 to 53.5
CCNc1ncnc(NCC)c1[N+](=O)[O-]	80 to 81
COc1cc(C)ccc1Oc1ccc(C=O)cc1C#N	112 to 113
CC(C)(C)c1cc(C(c2cccc([N+](=O)[O-])c2)N2CCCCC2)cc(C(C)(C)C)c1O (stereo not drawn)	157
COc1ccc(C(=O)Nc2ccccc2)cc1NC(=S)Nc1cccc([N+](=O)[O-])c1	188 to 189
CCCCOCCOc1ccc(-c2cnc(N3CCC(C)C3)c(/C=C(\C)C(=O)O)c2)cc1 (stereo not drawn)	106 to 108
COc1ccc(C2(c3ccc(OC)cc3)CC2(Cl)Cl)cc1	138
CSc1ccc(CN2CC(C)(C)C(Oc3ccc(C#N)c(C(F)(F)F)c3)C2=O)cc1 (stereo not drawn)	44.1 to 44.8
CC(=O)N1N=C(c2ccc([N+](=O)[O-])cc2)c2ccc(Cl)cc2CC1C (stereo not drawn)	174 to 175
C=CC(C)C1CCC2C3CCC4=CC(O)CCC4(C)C3CCC12C (stereo not drawn)	121 to 123
CC(C)(CNS(=O)(=O)c1ccc(-c2ccccn2)s1)N1CCC(Oc2ccc(F)c(F)c2)CC1	133 to 134
N#Cc1ccc(-c2nc(C(=O)Nc3nccs3)c(-c3ccc(F)cc3)[nH]2)cc1	> 250
CC1COc2cc(Oc3ccc(NC(=O)N(C)C)cn3)ccc21 (stereo not drawn)	153 to 154
CCCCCS(=O)(=O)NC(=O)CCCCc1cc(OCCCC)nn1Cc1ccc(Cl)cc1Cl	91 to 93
O=C1CCc2cc(-c3cccs3)ccc21	148
CC(=O)Nc1ccc(S(=O)(=O)CCCl)cc1	188
CC(C)(C=O)S(=O)(=O)c1ccccc1	103 to 104
N#Cc1c[nH]c2cccc(OCC3CO3)c12 (stereo not drawn)	116 to 120
CCCc1c(SCCCOc2ccc3c(=O)cc(C(=O)OCC)oc3c2CCC)ccc2c(=O)cc(C(=O)OCC)[nH]c12	168 to 170
Cc1nc(-n2ccn(Cc3ccc(C(F)(F)F)cc3)c2=O)sc1C(=O)NCc1cccnc1	163 to 164
CCCc1c(C#N)c(C(F)F)nc(C(F)(F)F)c1C(=O)OCC	40 to 41
Cc1ccc(-c2ccc(S(C)(=O)=O)cc2)n1CC(C)(C)S	124 to 126
Cc1cccc(-c2[nH]c(C(C)C)nc2-c2cccc(-c3ccc(N)cn3)c2)n1	119 to 124

SMILES	melting point [°C]
Cn1cc(C(=O)NCc2ccc(Cl)cc2)c(=O)c2sc(CO)c(COCC[Si](C)(C)C)c21	193 to 194
COC(=O)C(Oc1ccc(Cl)c2c1CCCC2)c1ccc(Oc2ccc(Cl)cc2)cc1 (stereo not drawn)	87.5 to 90
Cc1nc(-c2ccc3c(c2)c(-c2cc4cccnc4[nH]2)cn3C)no1	290 to 294
COc1ccc(C2CC(c3ccccc3)=NN2c2ccc(C(=O)O)cc2)cc1 (stereo not drawn)	226
CCOC(=O)C1=C(C(=O)OCC)c2c(OC)ccc(Br)c2C1	99 to 101
COC(=O)c1[nH]c2c(C)ccc(C)c2c1S(C)=O (stereo not drawn)	127
CC1=CC(c2cccc(Cl)c2Cl)C(c2nnco2)=C(C)N1 (stereo not drawn)	235
Nc1cccc(C=C2c3ccccc3CCc3ccccc32)c1	204
CCOC(=O)c1nc(/C=C/c2ccccc2)ns1	79 to 80
CCCCC(Cc1ccc(OCCNC(=O)c2ccc(-c3ccc(OC)cc3)cc2)cc1)C(=O)O (stereo not drawn)	166 to 168
O=C(CCl)N[C@H]1CC[C@H](O)CC1	149 to 151
O=[N+]([O-])c1cccc2c1nc(-c1c(F)cccc1F)n2Cc1c(F)cccc1F	168 to 170
CCOC(=O)c1cc2cc([N+](=O)[O-])cc(CC)c2o1	114 to 116
COc1cc(COc2nn(Cc3cccnc3)cc2CO)ccc1OCc1nc(-c2ccco2)oc1C	90 to 91
N#Cc1ncc(Br)cc1Br	109 to 112
COc1cc2c(O)c(S(=O)(=O)N(C)C)cnc2cc1Cl	316 to 318
O=C(NC12CC3CC(CC(C3)C1)C2)OCc1cccs1	66 to 68
CN1CCN(c2ccc(C(=O)N[C@H]3CC[C@H](CCN4CCN(c5nccc6c5CCO6)CC4)CC3)cc2)CC1	236
CCCCCCC(C)(C)c1cc(O)c(C2=C(CO)CCC(C)C2)c(O)c1 (stereo not drawn)	155 to 156
Cc1ccc(N(C(=O)CCl)c2c(C)cccc2Cl)cc1	113 to 114
C[C@]1(COc2ccc(N3CCN(Cc4ccc(OC(F)(F)F)cc4)CC3)cc2)Cn2cc([N+](=O)[O-])nc2O1	214 to 217
CCCc1nc2c(N)nc3ccccc3c2n1Cc1cc(-c2ccc(F)cc2)no1	226 to 227
O=C(NN1CCCCC1)c1nn(-c2ccc(Cl)cc2Cl)c2c1CCc1sc(Br)cc1-2	145
CCCCCCCCCCCCCCOC(=O)c1cc(C(=O)OCCCCCCCCCCCCCC)cc(N(CC(=O)O)CC(=O)O)c1	84 to 87
CC(C(=O)O)C(=O)Nc1cccc(S(=O)(=O)n2c(=O)[nH]c3cc(Cl)ccc3c2=O)c1 (stereo not drawn)	187 to 188

SMILES	melting point [°C]
Cc1ccc(C(=O)NC(NC(=S)Nc2cccc([N+](=O)[O-])c2)C(F)(F)F)cc1 (stereo not drawn)	185 to 186
Cc1c(C(=O)N(C)c2ccc(N3CCC(O)CC3)c(C#N)c2)cnn1-c1ccc(F)cc1	211 to 212
Cn1c2ccc(OCc3ccccc3)cc2c2c(CC(=O)N3CCCC3)nn(-c3ccccc3)c(=O)c21	203 to 204
O=C1c2cc(-c3ccc(C(F)(F)F)cc3)ccc2CC1Br (stereo not drawn)	105
CCCCCCCCCCCCOc1ccc(-c2cc3ccccc3[nH]2)cc1OC	104
C=C(C)C(=O)Oc1ccccc1NS(C)(=O)=O	88 to 90
N#CC(C#N)=CN(N=C(C#N)C#N)c1ccc(Cl)c(Cl)c1	162 to 164
CC(C)Cn1cnc2c(N)nc3ccc(-c4ccc(C(C)(C)C)cc4)cc3c21	> 250
CCOC(=O)CN(Cc1ccccc1)C(=S)CCc1nc2c(F)c(F)cc(F)c2s1	86 to 88
CC(C)(C)c1ccc(C2CCSC(c3c(F)cccc3F)=N2)cc1 (stereo not drawn)	91 to 91.5
CCCCCCCSc1nn2c(=O)c(C)c(F)nc2s1	78 to 91
Nc1ccc(-c2noc(-c3cnn4c(C(F)F)cc(-c5ccc(C(F)(F)F)c(F)c5)nc34)n2)cn1	242
CCc1cccc2c3c([nH]c12)C(CC)(CC(=O)OC)OCC3O (stereo not drawn)	117 to 118
COc1c(-c2cc3c(s2)CCC(C)(C)C3N=[N+]=[N-])ccc2c(=O)c(C(=O)O)cn(C3CC3)c12 (stereo not drawn)	89 to 90
COCc1nc2ncccc2n1Cc1ccc(C(=O)N(C(C)C)C2CCCCC2)cc1OC	117 to 118
c1ccc2c(c1)C[C@@H]1c3ccccc3N[C@H]21 (relative stereo)	107
COc1ccc(CCNC(=O)C(N)=O)cc1OC	171 to 172
CC(=O)c1ccc(NC(=O)NCCN(CCNC(=O)Nc2ccc(C(C)=O)cc2)CCNC(=O)Nc2ccc(C(C)=O)cc2)cc1	189 to 190
CCC(=O)Oc1ccc(CC(=O)O)cc1C(C)(C)C	55.5 to 56.5
O=C(O)[C@H]1C[C@H](F)CN1	258 to 260
CSc1nc(=O)cc(C)n1C1CCCCC1	184 to 186
CN(C)C(=S)SSCCSSC(=S)N(C)C	142 to 143
CCCCNc1cc(-c2ccccc2)nc2nn(C)cc12	160 to 161
